{"source": "patent US20250339462A1", "about": "“CANCER TREATMENT USING ULTRA-HIGH CONCENTRATION GASEOUS NITRIC OXIDE AND A CHECKPOINT INHIBITOR” (Beyond Air, Inc., priority 2022, published 2025)", "key": {"CT26 cells": {"tested_on": "CT26 cells", "assay": "In vitro UNO exposure of CT26 cells, Annexin V/PI cell death analysis", "format": "cell-based, mouse", "settings": "25,000-100,000 ppm for 10 s, 30 s or 1 min; 24 hours following exposure; dosage and time dependent", "description": "(§1) Preparation of cells—Mouse colon carcinoma CT26.WT cells (ATCC number: CRL-2638) were grown to a 70-80% confluency and harvested using trypsin. Following, the cells were centrifuged at 1,200 revolutions per minute (rpm)—241 G for 8 minutes, then the pellet was re-suspended in 1 ml of cell media (RPMI—1640 supplemented with 10% FBS and 1% Pen-Strep). The cells were counted using an automated cell counter and a total of 2×10^6 cells were seeded into each […] containing 9 ml cell media. The plates were then placed for 24 hours in an incubator at 37° C., 5% CO2.\n(§2) UNO treatment—Following 24 hours of incubation, cell media was removed, and the plate was placed in an acrylic box stationed within an operating chemical fume hood. Prior to the initiation of treatment, the box was exposed to UV for 1 hour to reduce the chances of contamination. The box was closed and sealed with parafilm. A PVC delivery line was placed within a designated hole on the top of the box and lowered until approximately 5 cm within the box. The flowmeter was set to 1 LPM to expose the cells for the durations and concentrations described in Table 3 (control cells were untreated).\n(§3) Following treatment, 9 ml of cell media were added to each well and the plate was placed for 24 hours in an incubator at 37° C., 5% CO2.\n(§4) Flow cytometry—Cell media was removed to a 50 ml centrifuge tube. […]"}, "[1]": {"tested_on": "PD-L1 expression on CT26 PI negative cells", "assay": "In vitro UNO exposure of CT26 cells, PD-L1 expression by flow cytometry", "format": "cell-based, mouse", "description": "as §1, §2, §3, §4"}}}
{"smiles": "[N]=O", "note": "[UNO, nitric oxide]", "values": [{"measurement": "Effect on viability of CT26 cancer cells", "setting": "CT26 cells", "result": "reduces viability and induces apoptosis and necrosis"}, {"measurement": "PI negative cells expressing PD-L1", "setting": "[1]; 25,000-100,000 ppm for 10 s, 30 s or 1 min, depending on dosage and time of exposure", "result": "70-90%"}, {"measurement": "Mean fluorescent intensity (MFI) of PD-L1 expression", "setting": "[1]; UNO dosage and time dependent manner", "result": "increased"}]}
